Data taken from US20230085307A1, “PYRIDAZINONE COMPOUND AND HERBICIDE” (NISSAN CHEMICAL CORPORATION, priority 2019, published 2023).

Test system: blackgrass
Experiment: Test Example 5: herbicidal effect by foliage application, plastic box (Table 20, symbol J)
Type: in vivo, blackgrass (Alopecurus myosuroides)
Settings: foliage application, 320 g/ha, evaluated three weeks after application
Summary of the method: (§1)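 Sow seeds spot-wise in sterilized diluvial soil; cover with ~1.5 cm soil. Grow 14 days in greenhouse, 25° C. to 30° C. Spray foliage with emulsion diluted to predetermined amount. Rate effect after 3 weeks.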

Row | Compound | herbicidal effect on J: blackgrass (criteria 0-5)
1 | C=Cc1ccc2sc(-c3ccccc3OC)c(-c3c(O)c(C)nn(C)c3=O)c2c1 [2-185] | 1 (Herbicidal rate of 5% or more and less than 20%)
2 | Cc1nn(C)c(=O)c(-c2c(-c3ccccc3)sc3ccc(F)cc23)c1O [2-197] | 4 (Herbicidal rate of 70% or more and less than 90%)
3 | CCCC(=O)Oc1c(C)nn(C)c(=O)c1-c1c(-c2ccccc2)sc2ccc(F)cc12 [2-198] | 4 (Herbicidal rate of 70% or more and less than 90%)

Test system: late watergrass
Experiment: Test Example 2: herbicidal activity, application during weed generation under submerged conditions (Table 17, symbol A)
Type: in vivo, late watergrass (Echinochloa oryzicola)
Settings: AAH 320 g/ha; application during weed generation, submerged conditions
Summary of the method: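 Wagner pot, alluvial soil, 4 cm flood; mixed sowing of all species; greenhouse 25° C.–30° C. Emulsifiable formulation, water-diluted to predetermined dose, applied to paddy water at 1–2 leaf stage. Effect rated at 3 wk using the earlier test's scoring criteria.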

Row | Compound | herbicidal effect rating, A: late watergrass
4 | C=Cc1ccc2sc(-c3ccccc3OC)c(-c3c(O)c(C)nn(C)c3=O)c2c1 [2-185] | 3 (Herbicidal rate of 40% or more and less than 70%)
5 | Cc1nn(C)c(=O)c(-c2c(-c3ccccc3)sc3ccc(F)cc23)c1O [2-197] | 3 (Herbicidal rate of 40% or more and less than 70%)
6 | CCCC(=O)Oc1c(C)nn(C)c(=O)c1-c1c(-c2ccccc2)sc2ccc(F)cc12 [2-198] | 2 (Herbicidal rate of 20% or more and less than 40%)

Test system: lambsquarters
Experiment: Test Example 5: herbicidal effect by foliage application, plastic box (Table 20, symbol O)
Type: in vivo, lambsquarters (Chenopodium album)
Settings: foliage application, 320 g/ha, evaluated three weeks after application
Summary of the method: as §1

Row | Compound | herbicidal effect on O: lambsquarters (criteria 0-5)
7 | C=Cc1ccc2sc(-c3ccccc3OC)c(-c3c(O)c(C)nn(C)c3=O)c2c1 [2-185] | 4 (Herbicidal rate of 70% or more and less than 90%)
8 | Cc1nn(C)c(=O)c(-c2c(-c3ccccc3)sc3ccc(F)cc23)c1O [2-197] | 5 (Herbicidal rate of 90% or more (almost completely withered))
9 | CCCC(=O)Oc1c(C)nn(C)c(=O)c1-c1c(-c2ccccc2)sc2ccc(F)cc12 [2-198] | 5 (Herbicidal rate of 90% or more (almost completely withered))

Test system: blackgrass
Experiment: Test Example 4: herbicidal effect by soil treatment (Table 19, symbol J)
Type: in vivo, blackgrass (Alopecurus myosuroides)
Settings: amount of applied herbicide 320 g/ha
Summary of the method: (§2)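 Applied as a water-diluted emulsion, the compound was sprayed onto soil covering newly sown seeds. Evaluation came three weeks after application, in a greenhouse held at 25° C. to 30° C.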

Row | Compound | J: blackgrass, herbicidal effect rating
10 | C=Cc1ccc2sc(-c3ccccc3OC)c(-c3c(O)c(C)nn(C)c3=O)c2c1 [2-185] | 0 (Herbicidal rate of 5% or less (almost no effect))
11 | Cc1nn(C)c(=O)c(-c2c(-c3ccccc3)sc3ccc(F)cc23)c1O [2-197] | 3 (Herbicidal rate of 40% or more and less than 70%)
12 | CCCC(=O)Oc1c(C)nn(C)c(=O)c1-c1c(-c2ccccc2)sc2ccc(F)cc12 [2-198] | 4 (Herbicidal rate of 70% or more and less than 90%)

Test system: barnyard grass
Experiment: Test Example 3: herbicidal effect by foliage application, Wagner pot (Table 18, symbol H)
Type: in vivo, barnyard grass (Echinochloa crus-galli)
Settings: amount of applied herbicide 320 g/ha
Summary of the method: (§3)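 Plants were sown in alluvial soil held under 0.1–0.5 cm standing water and grown 14 days in a greenhouse at 25–30 °C. An emulsifiable formulation, water-diluted to the set dose, was then sprayed onto the foliage, and effects were scored three weeks later using previously defined criteria.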

Row | Compound | herbicidal effect on H: barnyard grass
13 | C=Cc1ccc2sc(-c3ccccc3OC)c(-c3c(O)c(C)nn(C)c3=O)c2c1 [2-185] | 3 (Herbicidal rate of 40% or more and less than 70%)
14 | Cc1nn(C)c(=O)c(-c2c(-c3ccccc3)sc3ccc(F)cc23)c1O [2-197] | 5 (Herbicidal rate of 90% or more (almost completely withered))
15 | CCCC(=O)Oc1c(C)nn(C)c(=O)c1-c1c(-c2ccccc2)sc2ccc(F)cc12 [2-198] | 5 (Herbicidal rate of 90% or more (almost completely withered))

Test system: Italian ryegrass
Experiment: Test Example 5: herbicidal effect by foliage application, plastic box (Table 20, symbol K)
Type: in vivo, Italian ryegrass (Lolium multiflorum)
Settings: foliage application, 320 g/ha, evaluated three weeks after application
Summary of the method: as §1

Row | Compound | herbicidal effect on K: Italian ryegrass (criteria 0-5)
16 | C=Cc1ccc2sc(-c3ccccc3OC)c(-c3c(O)c(C)nn(C)c3=O)c2c1 [2-185] | 0 (Herbicidal rate of 5% or less (almost no effect))
17 | Cc1nn(C)c(=O)c(-c2c(-c3ccccc3)sc3ccc(F)cc23)c1O [2-197] | 4 (Herbicidal rate of 70% or more and less than 90%)
18 | CCCC(=O)Oc1c(C)nn(C)c(=O)c1-c1c(-c2ccccc2)sc2ccc(F)cc12 [2-198] | 5 (Herbicidal rate of 90% or more (almost completely withered))

Test system: redroot pigweed
Experiment: Test Example 5: herbicidal effect by foliage application, plastic box (Table 20, symbol N)
Type: in vivo, redroot pigweed (Amaranthus retroflexus)
Settings: foliage application, 320 g/ha, evaluated three weeks after application
Summary of the method: as §1

Row | Compound | herbicidal effect on N: redroot pigweed (criteria 0-5)
19 | C=Cc1ccc2sc(-c3ccccc3OC)c(-c3c(O)c(C)nn(C)c3=O)c2c1 [2-185] | 5 (Herbicidal rate of 90% or more (almost completely withered))
20 | Cc1nn(C)c(=O)c(-c2c(-c3ccccc3)sc3ccc(F)cc23)c1O [2-197] | 5 (Herbicidal rate of 90% or more (almost completely withered))
21 | CCCC(=O)Oc1c(C)nn(C)c(=O)c1-c1c(-c2ccccc2)sc2ccc(F)cc12 [2-198] | 5 (Herbicidal rate of 90% or more (almost completely withered))

Test system: windgrass
Experiment: Test Example 4: herbicidal effect by soil treatment (Table 19, symbol L)
Type: in vivo, windgrass (Apera spica-venti)
Settings: amount of applied herbicide 320 g/ha
Summary of the method: as §2

Row | Compound | L: windgrass, herbicidal effect rating
22 | C=Cc1ccc2sc(-c3ccccc3OC)c(-c3c(O)c(C)nn(C)c3=O)c2c1 [2-185] | 0 (Herbicidal rate of 5% or less (almost no effect))
23 | Cc1nn(C)c(=O)c(-c2c(-c3ccccc3)sc3ccc(F)cc23)c1O [2-197] | 1 (Herbicidal rate of 5% or more and less than 20%)
24 | CCCC(=O)Oc1c(C)nn(C)c(=O)c1-c1c(-c2ccccc2)sc2ccc(F)cc12 [2-198] | 3 (Herbicidal rate of 40% or more and less than 70%)

Test system: late watergrass
Experiment: Test Example 1: herbicidal activity, application before weed generation under submerged conditions (Table 16, symbol A)
Type: in vivo, late watergrass (Echinochloa oryzicola)
Settings: 320 g/ha applied herbicide
Summary of the method: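 Submerged Wagner pots (alluvial soil, 4 cm water) sown with weed seeds and planted with 2.5-leaf rice seedlings; emulsifiable concentrate diluted in water applied to water surface on sowing day. Held in greenhouse at 25-30 °C; injury scored 0-5 by herbicidal rate after three weeks.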

Row | Compound | Herbicidal effect on A: late watergrass (grade 0-5)
25 | C=Cc1ccc2sc(-c3ccccc3OC)c(-c3c(O)c(C)nn(C)c3=O)c2c1 [2-185] | 0 (Herbicidal rate of 5% or less (almost no effect))
26 | Cc1nn(C)c(=O)c(-c2c(-c3ccccc3)sc3ccc(F)cc23)c1O [2-197] | 3 (Herbicidal rate of 40% or more and less than 70%)
27 | CCCC(=O)Oc1c(C)nn(C)c(=O)c1-c1c(-c2ccccc2)sc2ccc(F)cc12 [2-198] | 5 (Herbicidal rate of 90% or more (almost completely withered))

Test system: Italian ryegrass
Experiment: Test Example 4: herbicidal effect by soil treatment (Table 19, symbol K)
Type: in vivo, Italian ryegrass (Lolium multiflorum)
Settings: amount of applied herbicide 320 g/ha
Summary of the method: as §2

Row | Compound | K: Italian ryegrass, herbicidal effect rating
28 | C=Cc1ccc2sc(-c3ccccc3OC)c(-c3c(O)c(C)nn(C)c3=O)c2c1 [2-185] | 0 (Herbicidal rate of 5% or less (almost no effect))
29 | Cc1nn(C)c(=O)c(-c2c(-c3ccccc3)sc3ccc(F)cc23)c1O [2-197] | 4 (Herbicidal rate of 70% or more and less than 90%)
30 | CCCC(=O)Oc1c(C)nn(C)c(=O)c1-c1c(-c2ccccc2)sc2ccc(F)cc12 [2-198] | 4 (Herbicidal rate of 70% or more and less than 90%)

Test system: velvetleaf
Experiment: Test Example 4: herbicidal effect by soil treatment (Table 19, symbol M)
Type: in vivo, velvetleaf (Abutilon theophrasti)
Settings: amount of applied herbicide 320 g/ha
Summary of the method: as §2

Row | Compound | M: velvetleaf, herbicidal effect rating
31 | C=Cc1ccc2sc(-c3ccccc3OC)c(-c3c(O)c(C)nn(C)c3=O)c2c1 [2-185] | 0 (Herbicidal rate of 5% or less (almost no effect))
32 | Cc1nn(C)c(=O)c(-c2c(-c3ccccc3)sc3ccc(F)cc23)c1O [2-197] | 4 (Herbicidal rate of 70% or more and less than 90%)
33 | CCCC(=O)Oc1c(C)nn(C)c(=O)c1-c1c(-c2ccccc2)sc2ccc(F)cc12 [2-198] | 3 (Herbicidal rate of 40% or more and less than 70%)

Test system: lambsquarters
Experiment: Test Example 4: herbicidal effect by soil treatment (Table 19, symbol O)
Type: in vivo, lambsquarters (Chenopodium album)
Settings: amount of applied herbicide 320 g/ha
Summary of the method: as §2

Row | Compound | O: lambsquarters, herbicidal effect rating
34 | C=Cc1ccc2sc(-c3ccccc3OC)c(-c3c(O)c(C)nn(C)c3=O)c2c1 [2-185] | 1 (Herbicidal rate of 5% or more and less than 20%)
35 | Cc1nn(C)c(=O)c(-c2c(-c3ccccc3)sc3ccc(F)cc23)c1O [2-197] | 5 (Herbicidal rate of 90% or more (almost completely withered))
36 | CCCC(=O)Oc1c(C)nn(C)c(=O)c1-c1c(-c2ccccc2)sc2ccc(F)cc12 [2-198] | 4 (Herbicidal rate of 70% or more and less than 90%)

Test system: velvetleaf
Experiment: Test Example 5: herbicidal effect by foliage application, plastic box (Table 20, symbol M)
Type: in vivo, velvetleaf (Abutilon theophrasti)
Settings: foliage application, 320 g/ha, evaluated three weeks after application
Summary of the method: as §1

Row | Compound | herbicidal effect on M: velvetleaf (criteria 0-5)
37 | C=Cc1ccc2sc(-c3ccccc3OC)c(-c3c(O)c(C)nn(C)c3=O)c2c1 [2-185] | 5 (Herbicidal rate of 90% or more (almost completely withered))
38 | Cc1nn(C)c(=O)c(-c2c(-c3ccccc3)sc3ccc(F)cc23)c1O [2-197] | 5 (Herbicidal rate of 90% or more (almost completely withered))
39 | CCCC(=O)Oc1c(C)nn(C)c(=O)c1-c1c(-c2ccccc2)sc2ccc(F)cc12 [2-198] | 5 (Herbicidal rate of 90% or more (almost completely withered))

Test system: Chinese sprangletop
Experiment: Test Example 3: herbicidal effect by foliage application, Wagner pot (Table 18, symbol D)
Type: in vivo, chinese sprangletop (Leptochloa chinensis)
Settings: amount of applied herbicide 320 g/ha
Summary of the method: as §3

Row | Compound | herbicidal effect on D: Chinese sprangletop
40 | C=Cc1ccc2sc(-c3ccccc3OC)c(-c3c(O)c(C)nn(C)c3=O)c2c1 [2-185] | 0 (Herbicidal rate of 5% or less (almost no effect))
41 | Cc1nn(C)c(=O)c(-c2c(-c3ccccc3)sc3ccc(F)cc23)c1O [2-197] | 5 (Herbicidal rate of 90% or more (almost completely withered))
42 | CCCC(=O)Oc1c(C)nn(C)c(=O)c1-c1c(-c2ccccc2)sc2ccc(F)cc12 [2-198] | 5 (Herbicidal rate of 90% or more (almost completely withered))

Test system: southern crabgrass
Experiment: Test Example 4: herbicidal effect by soil treatment (Table 19, symbol F)
Type: in vivo, southern crabgrass (Digitaria ciliaris)
Settings: amount of applied herbicide 320 g/ha
Summary of the method: as §2

Row | Compound | F: southern crabgrass, herbicidal effect rating
43 | C=Cc1ccc2sc(-c3ccccc3OC)c(-c3c(O)c(C)nn(C)c3=O)c2c1 [2-185] | 0 (Herbicidal rate of 5% or less (almost no effect))
44 | Cc1nn(C)c(=O)c(-c2c(-c3ccccc3)sc3ccc(F)cc23)c1O [2-197] | 4 (Herbicidal rate of 70% or more and less than 90%)
45 | CCCC(=O)Oc1c(C)nn(C)c(=O)c1-c1c(-c2ccccc2)sc2ccc(F)cc12 [2-198] | 5 (Herbicidal rate of 90% or more (almost completely withered))

Test system: persian speedwell
Experiment: Test Example 4: herbicidal effect by soil treatment (Table 19, symbol R)
Type: in vivo, Persian speedwell (Veronica persica)
Settings: amount of applied herbicide 320 g/ha
Summary of the method: as §2

Row | Compound | R: persian speedwell, herbicidal effect rating
46 | C=Cc1ccc2sc(-c3ccccc3OC)c(-c3c(O)c(C)nn(C)c3=O)c2c1 [2-185] | 0 (Herbicidal rate of 5% or less (almost no effect))
47 | Cc1nn(C)c(=O)c(-c2c(-c3ccccc3)sc3ccc(F)cc23)c1O [2-197] | 3 (Herbicidal rate of 40% or more and less than 70%)
48 | CCCC(=O)Oc1c(C)nn(C)c(=O)c1-c1c(-c2ccccc2)sc2ccc(F)cc12 [2-198] | 4 (Herbicidal rate of 70% or more and less than 90%)
